Experimental data from US20250152526A1, “USES OF IVALTINOSTAT FOR TREATING PANCREATIC CANCER” (CG PHARMACEUTICALS, INC, priority 2022, published 2025).
pIC50: −log10 of the molar value.

Assays:
[1] = system: pancreatic cancer; conditions: 1250 mg/m^2 twice daily for 2 weeks followed by 1-week rest, first line; cited from earlier work
[2] = target: T1, CYP1A2 (Homo sapiens, UniProt P05177); test: in vitro CYP inhibition; assay type: in vitro ADME
T1 sequence (P05177 1-516): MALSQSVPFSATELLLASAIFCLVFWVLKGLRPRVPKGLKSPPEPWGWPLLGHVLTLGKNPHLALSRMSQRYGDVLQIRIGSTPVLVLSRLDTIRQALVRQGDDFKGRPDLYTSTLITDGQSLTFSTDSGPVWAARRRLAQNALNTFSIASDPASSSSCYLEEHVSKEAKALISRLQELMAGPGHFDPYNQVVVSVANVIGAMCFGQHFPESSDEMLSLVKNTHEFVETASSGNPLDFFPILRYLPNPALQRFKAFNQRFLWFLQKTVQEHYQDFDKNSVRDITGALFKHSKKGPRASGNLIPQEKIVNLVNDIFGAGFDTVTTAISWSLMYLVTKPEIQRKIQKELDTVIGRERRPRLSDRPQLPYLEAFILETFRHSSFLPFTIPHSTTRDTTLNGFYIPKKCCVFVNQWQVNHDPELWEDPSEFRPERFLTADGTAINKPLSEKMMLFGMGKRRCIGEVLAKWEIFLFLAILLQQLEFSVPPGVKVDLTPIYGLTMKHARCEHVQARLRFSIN
Text: (§1) Concomitant use of drugs that are moderate or strong inhibitors or inducers of these CYP enzymes should be avoided. […] Concomitant use of drugs that are substrates of CYP2D6 and have a narrow therapeutic index is not advised.

[3] = target: CYP2C19 (Homo sapiens, UniProt P33261); test: in vitro CYP inhibition; assay type: in vitro ADME
Text: as §1

[4] = target: CYP2C9 (Homo sapiens, UniProt P11712); test: in vitro CYP inhibition; assay type: in vitro ADME
Text: as §1

[5] = target: T2, CYP2D6 (Homo sapiens, UniProt P10635); test: in vitro CYP inhibition; assay type: in vitro ADME
Text: as §1

[6] = target: CYP3A4 (Homo sapiens, UniProt P08684); test: in vitro CYP inhibition; assay type: in vitro ADME
Text: as §1

[7] = target: T2, CYP2D6; test: nonclinical CYP substrate studies; assay type: in vitro ADME
Text: as §1

[8] = system: CYP3A; test: nonclinical CYP substrate studies; assay type: in vitro ADME
Text: as §1

[9] = Phase 1/2 study of ivaltinostat (IV) in combination with gemcitabine and erlotinib
Method: Ivaltinostat was administered on Days 1, 8 and 15 of a 28-day cycle in combination with gemcitabine (1000 mg/m^2; IV on Days 1, 8, and 15) and erlotinib (100 mg orally QD).
In the Phase 2 component of the study, 24 subjects received ivaltinostat at a dose level of 250 mg/m^2 in combination of gemcitabine (1000 mg/m^2; IV on Days 1, 8, and 15) and erlotinib (100 mg orally QD). In Phase 2, planned treatment duration was up to 6 cycles, but treatment could continue beyond 6 cycles if there was no progression of disease, at the discretion of the subject and treating physician.

[10] = system: germline BRCA-mutated metastatic pancreatic cancer; conditions: cited from earlier work
[11] = system: metastatic pancreatic cancer; conditions: first line; cited from earlier work
[12] = Phase 2, 250 mg/m^2 plus gemcitabine and erlotinib
[13] = Phase 2, 16 evaluable subjects, plus gemcitabine and erlotinib
[14] = Phase 2, 16 subjects with at least one tumor evaluation, plus gemcitabine and erlotinib

T2 sequence (P10635 whole entry): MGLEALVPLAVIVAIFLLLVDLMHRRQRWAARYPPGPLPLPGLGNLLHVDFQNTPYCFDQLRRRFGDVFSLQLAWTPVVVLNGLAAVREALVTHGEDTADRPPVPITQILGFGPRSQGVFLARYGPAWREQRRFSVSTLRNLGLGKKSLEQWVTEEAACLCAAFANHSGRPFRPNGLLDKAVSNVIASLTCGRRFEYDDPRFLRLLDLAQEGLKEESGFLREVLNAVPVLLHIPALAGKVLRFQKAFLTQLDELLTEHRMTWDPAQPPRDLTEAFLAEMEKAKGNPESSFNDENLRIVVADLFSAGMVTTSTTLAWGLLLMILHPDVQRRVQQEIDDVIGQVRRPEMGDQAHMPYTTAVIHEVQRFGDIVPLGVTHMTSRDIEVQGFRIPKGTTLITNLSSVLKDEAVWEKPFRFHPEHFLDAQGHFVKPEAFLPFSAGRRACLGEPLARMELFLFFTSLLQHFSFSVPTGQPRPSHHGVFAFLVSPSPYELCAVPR
Chain of CYP2C9 (P11712 whole entry): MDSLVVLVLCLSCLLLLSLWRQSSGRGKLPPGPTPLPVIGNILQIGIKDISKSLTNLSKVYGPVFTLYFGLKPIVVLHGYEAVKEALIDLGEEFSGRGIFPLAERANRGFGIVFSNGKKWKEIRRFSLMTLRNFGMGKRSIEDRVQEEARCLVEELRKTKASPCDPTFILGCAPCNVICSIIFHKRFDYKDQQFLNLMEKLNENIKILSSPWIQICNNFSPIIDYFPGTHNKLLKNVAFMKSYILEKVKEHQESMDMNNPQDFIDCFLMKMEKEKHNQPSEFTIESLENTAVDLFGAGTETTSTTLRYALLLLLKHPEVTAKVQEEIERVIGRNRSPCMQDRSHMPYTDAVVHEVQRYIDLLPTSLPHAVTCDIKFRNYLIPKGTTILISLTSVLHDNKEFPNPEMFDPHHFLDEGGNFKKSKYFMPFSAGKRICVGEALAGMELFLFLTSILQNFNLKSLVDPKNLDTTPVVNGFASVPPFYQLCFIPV
Chain of CYP2C19 (P33261 whole entry): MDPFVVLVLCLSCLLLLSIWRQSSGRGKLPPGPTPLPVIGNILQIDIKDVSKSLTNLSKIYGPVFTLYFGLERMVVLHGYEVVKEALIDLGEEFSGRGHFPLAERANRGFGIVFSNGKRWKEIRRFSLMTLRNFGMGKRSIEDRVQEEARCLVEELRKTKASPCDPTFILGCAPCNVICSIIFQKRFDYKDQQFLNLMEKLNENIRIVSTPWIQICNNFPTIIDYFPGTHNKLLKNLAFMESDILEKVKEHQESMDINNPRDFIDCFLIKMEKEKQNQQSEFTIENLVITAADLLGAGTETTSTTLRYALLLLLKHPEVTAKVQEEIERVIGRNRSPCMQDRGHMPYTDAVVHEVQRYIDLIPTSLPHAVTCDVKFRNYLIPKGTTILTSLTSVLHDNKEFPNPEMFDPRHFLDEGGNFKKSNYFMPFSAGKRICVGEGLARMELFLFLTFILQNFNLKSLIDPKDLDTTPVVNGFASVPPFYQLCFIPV
Chain of CYP3A4 (P08684 whole entry): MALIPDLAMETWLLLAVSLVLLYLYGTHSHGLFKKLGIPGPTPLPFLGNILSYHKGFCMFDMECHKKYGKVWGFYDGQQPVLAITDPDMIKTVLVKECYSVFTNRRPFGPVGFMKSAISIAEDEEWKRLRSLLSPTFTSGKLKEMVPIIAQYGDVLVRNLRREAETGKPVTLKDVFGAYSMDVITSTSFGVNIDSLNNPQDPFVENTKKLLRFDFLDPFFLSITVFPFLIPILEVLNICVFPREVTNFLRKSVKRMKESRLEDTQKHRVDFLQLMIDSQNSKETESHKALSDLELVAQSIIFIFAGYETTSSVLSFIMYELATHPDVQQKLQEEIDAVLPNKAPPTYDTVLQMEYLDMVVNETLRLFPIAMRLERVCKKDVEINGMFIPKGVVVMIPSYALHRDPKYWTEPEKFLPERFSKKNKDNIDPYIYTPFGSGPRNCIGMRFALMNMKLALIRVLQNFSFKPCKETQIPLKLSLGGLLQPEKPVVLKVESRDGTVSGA

## CCCCCOC(=O)Nc1nc(=O)n([C@@H]2O[C@H](C)[C@@H](O)[C@H]2O)cc1F [Capecitabine, capecitabine]
[1]
  efficacy and tolerability of dose schedule: effective and tolerable

## CN(C)CCCNC(=O)/C(=C/CCCCC(=O)NO)COc1cccc2ccccc12.O=P(O)(O)O [ivaltinostat, (E)-N1-(3-(dimethylamino)propyl)-N8-hydroxy-2-((naphthalen-1-yloxy)methyl)oct-2-enediamide phosphate]
[2]
  pIC50: < 5.00
[3]
  pIC50: < 4.05
[4]
  pIC50: < 4.05
[5]
  pIC50: 5.26
[6]
  pIC50: < 5.00
[7]
  substrate for CYP2D6: substrate
[8]
  substrate for CYP3A: substrate
[9]; [12]
  anemia, grade 3 treatment-related AE frequency: 17%
  anemia, grade 4 treatment-related AE frequency: 0%
  deaths related to SAEs considered related to the investigational drugs: no deaths
  discontinuation of study drug due to an AE: No subjects discontinued
  neutrophil count decreased, grade 3 treatment-related AE frequency: 13%
  neutrophil count decreased, grade 4 treatment-related AE frequency: 17%
  platelet count decreased, grade 3 treatment-related AE frequency: 17%
  platelet count decreased, grade 4 treatment-related AE frequency: 13%
  tolerability: generally well tolerated
[9]; [13]
  partial responses: 25%
  partial responses, number of patients: 4 patients
  stable disease: 68.8%
  stable disease, number of patients: 11 patients
[9]; [14]
  disease control rate (DCR): 93.8%
  objective response rate (ORR): 25.0%

## O=C(c1cc(Cc2n[nH]c(=O)c3ccccc23)ccc1F)N1CCN(C(=O)C2CC2)CC1 [olaparib]
[10]; gBRCA patients after ≥16 weeks of platinum-based therapy, vs. placebo
  median PFS: 7.4 months
[10]; gBRCA patients, p=0.004
  HR (PFS vs. placebo): 0.53

## FOLFIRINOX
[11]
  median progression-free survival (PFS): 6.4 months
  overall survival (OS): 11.1 months
